From patent US8110543B2, “Anti-invasive and anti-angiogenic compositions” (Angstrom Pharmaceuticals, Inc., priority 1997, dated 2012)

How the values were obtained:
PC-3 cells = test: PC-3 CAT metastasis model; type: in vivo, mice; settings: minipump 100 mg/kg/day, 14 or 21 days
Method: The compounds of this invention are also tested for inhibition of late metastasis using an experimental metastasis model (Crowley et al., 1993). Late metastasis involves the steps of attachment and extravasation of tumor cells, local invasion, seeding, proliferation and angiogenesis.
Human prostatic carcinoma cells (PC-3) transfected with a reporter gene, preferably the green fluorescent protein (GFP) gene, but as an alternative with a gene encoding the enzymes chioramphenicol acetyl-transferase (CAT), luciferase or LacZ. This permits utilization of either of these markers (fluorescence detection of GFP or histochemical colorimetric detection of enzymatic activity) for following the fate of these cells. Cells are injected, preferably iv, and metastases identified after about 14 days, particularly in the lungs but also in regional lymph nodes, femurs and brain. This mimics the organ tropism of naturally occurring metastases of prostate cancer. For example, GFP-expressing PC-3 cells (1×10^6 cells per mouse) are injected iv into the tail veins of nude (nu/nu) mice. Animals are also implanted with mini-pumps (sub-dermally on the back) dispensing either the test compound (at least about 100 mg/kg/day) or vehicle. The animals are euthanized after 14 days and their organs prepared for histological examination. Single metastatic cells and foci are visualized and quantitated by fluorescence microscopy or light microscopic histochemistry or by grinding the tissue and quantitative colorimetric assay of the detectable label.
(§1) In addition to Å6, other related peptide compounds described above are tested for efficacy in vivo in the 3LL model (as provided above) as well as the PC-3 model. PC-3 cells transfected with the gene encoding the enzyme chloramphenicol acetyl-transferase (CAT) are inoculated into mice i.v. at doses of 1×10^6 cells per mouse. These mice are implanted with a minipump, as above, which dispenses 100 mg/kg/day of the peptide or vehicle over a period of 14 or 21 days. At termination of treatment, the animals are euthanized and the tumor marker probe is assayed in regional lymph nodes, femurs, lungs, and brain.

3LL = 3LL metastasis model, related peptides; parameters: species or system mice; settings: mouse, in vivo
Text: This model has been utilized by a number of investigators. See, for example, Gorelik, E. et al., J. Nat'l. Canc. Inst. 65:1257-1264 (1980); Gorelik, E. et al., Rec. Results Canc Res. 75:20-28 (1980); Isakov, N. et al., Invasion Metas. 2:12-32 (1982); Talmadge J. E. et al., J. Nat'l. Canc. Inst. 69:975-980 (1982); Hilgard, P. et al, Br. J. Cancer 35:78-86 (1977)). Test mice are male C57BL/6 mice, 2-3 months old. Following sc, im, or intra-footpad implantation, this tumor produces metastases, preferentially in the lungs. With some lines of the tumor, the primary tumor exerts anti-metastatic effects and must first be excised before study of the metastatic phase (see also U.S. Pat. No. 5,639,725).
Single-cell suspensions are prepared from solid tumors by treating minced tumor tissue with a solution of 0.3% trypsin. Cells are washed 3 times with PBS (pH 7.4) and suspended in PBS. Viability of the 3LL cells prepared in this way is generally about 95-99% (by trypan blue dye exclusion). Viable tumor cells (3×10^4-5×10^6) suspended in 0.05 ml PBS are injected subcutaneously, either in the dorsal region or into one hind foot pad of C57BL/6 mice. Visible tumors appear after 3-4 days after dorsal sc injection of 10^6 cells. The day of tumor appearance and the diameters of established tumors are measured by caliper every two days.
The treatment is given as one or two doses of peptide or derivative, per week. In another embodiment, the peptide is delivered by osmotic minipump.
Lungs are removed and weighed. Lungs are fixed in Bouin's solution and the number of visible metastases is recorded. The diameters of the metastases are also measured using a binocular stereoscope equipped with a micrometer-containing ocular under 8× magnification. On the basis of the recorded diameters, it is possible to calculate the volume of each metastasis. To determine the total volume of metastases per lung, the mean number of visible metastases is multiplied by the mean volume of metastases. To further determine metastatic growth, it is possible to measure incorporation of ^125IdUrd into lung cells (Thakur, M. L. et al., J. Lab. Clin. Med. 89:217-228 (1977). Ten days following tumor amputation, 25 μg of fluorodeoxyuridine is inoculated into the peritoneums of tumor-bearing (and, if used, tumor-resected mice). After 30 min, mice are given 1 μCi of ^125IdUrd (iododeoxyuridine). One day later, lungs and spleens are removed and weighed, and a degree of ^125IdUrd incorporation is measured using a gamma counter.
as §1

Mat B-III tumors = test: Rat syngeneic Mat B-III breast cancer model; type: in vivo; settings: comparative analysis of related peptides
Method: The effects of the compounds are tested on tumor progression in a rat syngeneic model of breast cancer (Xing and Rabbani, 1996). Mat BIII rat breast tumor cells (1×10^6 cells in PBS, 0.1 mL per rat) are inoculated into the mammary fat pads of female Fisher rats. The test compound is dissolved in PBS (200 mM stock), sterile filtered and dispensed in vivo at a dose of up to about 100 mg/kg/day) using a 14-day Alza osmotic mini-pump implanted intraperitoneally at the time of inoculation. Control animals receive vehicle (PBS) alone. Animals are euthanized at day 14 and examined for metastasis in the spleen, lungs, liver, kidney and lymph nodes. In addition, the primary tumors are excised, quantitated, and prepared for immunohistochemistry.
The rat syngeneic breast cancer system (Xing and Rabbani, 1996) employs Mat BIIIrat breast cancer cells. When Mat B-III cells (1×10^6 cells) are inoculated into the mammary fat pad of female Fisher rats, they form large tumors which metastasize to regional lymph nodes (LNs) and other distal sites within 14-20 days.
Å6 was initially delivered prophylactically (infusion starting on the day of tumor inoculation) using an Alzet mini-pump that delivered 75 mg/kg/day. […] Metastasis was quantitated by counting the number of macroscopic foci without regard for their size.
Estrogen receptor-positive Mat B-III tumors were used to test combination treatment with Å6 (75 mg/kg/day) and TAM (3 mg/kg/day). In contrast to previous studies, the Mat B-III tumors (inoculated in the mammary fat pad) were staged to 40-50 mm^3 prior to the initiation of treatment. Treatment was continued for 8 days during which time primary tumor growth was measured using calipers (FIG. 14).

3LL cells = test: Tumor angiogenesis (microvessel density) in 3LL model; type: in vivo, Mice; settings: 100-250 mg/kg/day; compared to controls
Method: Angiogenesis is measured by determining microvessel density using immunostaining for CD31 (also known as platelet-endothelial cell adhesion molecule or PECAM). Results are reported as the average microvessel density of 5 fields each from 5 different sections (Penfold et al., 1996). Typically, the whole tumor is excised, sectioned and the sections examined histologically for microvessel density using appropriate stains or labels for other markers.
Angiogenesis induced by tumor growth and metastasis in vivo is examined in the models systems described above. Mice injected with 3LL cells are treated either with peptide or with vehicle and are sacrificed at various time points. Angiogenesis is assessed by determining microvessel density (MVD) using an antibody specific for microvascular endothelium or other markers of growing blood vessels, such as PECAM (CD31). Such an antibody is employed in conventional immunohistological methods to immunostain tissue sections as described by Penfold et al., supra. A large number of such antibodies is commercially available, for example the JC70 mAb. The MVD are correlated with other measures of tumor behavior including lymph node status and primary tumor size and rate of growth. In humans as reported by Penfold et al., supra, tumor MVD correlates with lymph node metastasis and is independent of tumor size, growth rate or type of histological differentiation.
The compounds are given i.v., i.p., or by osmotic minipump Typical dosages are 100-250 mg/kg/day. At various time points, two animals are sacrificed, and the tumor tissue and surrounding tissue is prepared for histological examination. Results are reported as the average microvessel density of 5 fields each from 5 different sections. The following seven compounds are tested: Ac-[…]-Am (SEQ ID NO:2), Ac-[…]-Am (SEQ ID NO: 6) (disubstitution variant at positions 3 and 4), Ac-[…]-Am (SEQ ID NO: 7) (disubstitution variant at positions 7 and 8), Ac-[…]-Am (SEQ ID NO: 8) (substitution variant at position 1), Ac-PSSPPEE-Am (SEQ ID NO: 4) (deletion variant, position 1 of SEQ ID NO:2 deleted), Ac-KPSSPPE-Am (SEQ ID NO: 5) (deletion variant, position 8 of SEQ ID NO:2 deleted), and Ac-[…]-Am (SEQ ID NO:1).

[1] = system: human prostate cancer line PC-3; test: Matrigel invasion assay, PC-3 cells; type: cell-based; settings: 5 μM (FIG. 1, FIG. 2)
Method: Several peptides were tested for anti-invasive capacity in a Matrigel® invasion assay system as indicated above (Kleinman et al., supra; Parish et al., supra). Several invasive human tumor lines (PC-3, MDA-MB-231) and non-human tumors (3LL, Mat B-III) were examined. The rat breast cancer line Mat B III and the human prostate cancer line PC-3 were initially used.
Tumor cells (5×10^5/mL, in a volume of 200 μL) in serum-free RPMI 1640 medium were added to a disposable transwell invasion chamber coated with Matrigel® (Becton Dickinson, Lincoln Park, N.J.). The invasion chambers were placed in 24-well tissue culture plates filled with serum-free RPMI-1640 and the plates were placed in an atmosphere of 5% CO2 in humidified air at 37° C. for 48-72 hours. The chambers were then removed, inverted, and the cells which had invaded (and now appeared on the bottom face of the invasion chamber) were fixed and stained using Diff-Quick® (Scientific Products). Cells were counted in 10 different fields on each filter and an average obtained.

## Ac-KPSSPPDD-Am: disubstitution variant at positions 7 and 8 (SEQ ID NO: 7) (Ac-KPSSPPDD-NH2)
PC-3 cells
  metastasis, PC-3 model: markedly inhibited
3LL
  metastasis, 3LL model: markedly inhibited
Mat B-III tumors
  number of metastases in the spleen, lungs, liver, kidney and lymph nodes: significant reduction
  size of the primary tumor: significant reduction
3LL cells
  number of microvessels in the region of the primary tumor: significant reduction

## Ac-KPSSPPEELK-Am: capped counterpart of KPSSPPEELK (SEQ ID NO: 1) (Ac-KPSSPPEELK-NH2) [reference compound]
PC-3 cells
  metastasis, PC-3 model: no reduction
3LL
  metastasis, 3LL model: no reduction
Mat B-III tumors
  number of metastases in the spleen, lungs, liver, kidney and lymph nodes: fail to cause a significant change
  size of the primary tumor: fail to cause a significant change
3LL cells
  number of microvessels in the region of the primary tumor: no significant effect

## Ac-KPTTPPEE-Am: disubstitution variant at positions 3 and 4 (SEQ ID NO: 6) (Ac-KPTTPPEE-NH2)
PC-3 cells
  metastasis, PC-3 model: markedly inhibited
3LL
  metastasis, 3LL model: markedly inhibited
Mat B-III tumors
  number of metastases in the spleen, lungs, liver, kidney and lymph nodes: significant reduction
  size of the primary tumor: significant reduction
3LL cells
  number of microvessels in the region of the primary tumor: significant reduction

## Ac-Lys-Pro-Ser-Ser-Pro-Pro-Glu-Am (Ac-KPSSPPE-NH2) [Ac-KPSSPPE-Am]
PC-3 cells
  metastasis, PC-3 model: no reduction
3LL
  metastasis, 3LL model: no reduction
Mat B-III tumors
  number of metastases in the spleen, lungs, liver, kidney and lymph nodes: fail to cause a significant change
  size of the primary tumor: fail to cause a significant change
3LL cells
  number of microvessels in the region of the primary tumor: no significant effect

## Ac-Pro-Ser-Ser-Pro-Pro-Glu-Glu-Am (Ac-PSSPPEE-NH2) [Ac-PSSPPEE-Am]
PC-3 cells
  metastasis, PC-3 model: no reduction
3LL
  metastasis, 3LL model: no reduction
Mat B-III tumors
  number of metastases in the spleen, lungs, liver, kidney and lymph nodes: fail to cause a significant change
  size of the primary tumor: fail to cause a significant change
3LL cells
  number of microvessels in the region of the primary tumor: no significant effect

## Ac-RPSSPPEE-Am: substitution variant at position 1 (SEQ ID NO: 8) (Ac-RPSSPPEE-NH2)
PC-3 cells
  metastasis, PC-3 model: markedly inhibited
3LL
  metastasis, 3LL model: markedly inhibited
Mat B-III tumors
  number of metastases in the spleen, lungs, liver, kidney and lymph nodes: significant reduction
  size of the primary tumor: significant reduction
3LL cells
  number of microvessels in the region of the primary tumor: significant reduction

## KPSSPPEELK [Lys-Pro-Ser-Ser-Pro-Pro-Glu-Glu-Leu-Lys, reference compound]
[1]
  in vitro invasion of PC-3 cells in a Matrigel system: inactive
